Results reported in PMC10504495 (iScience, 2023).

Experiments:
[1] = target: T1, HDAC3 (Homo sapiens, UniProt O15379); assay: fluorogenic probe delactylation assay; type: biochemical; details: 10 μM probe
T1 construct: purchased Abcam ab42631
Protocol: (§1) To determine the absorption spectra, 10 μM p-H4K16laNBD was incubated with or without 0.2 μM SIRT3 and 100 μM NAD^+ for 2 h in 20 mM HEPES buffer (pH = 8.0). For the fluorescence assay, the fluorescence was detected using an excitation wavelength of 480 nm, and the emitted fluorescence signal was measured over the range of 520–740 nm using a microplate reader (Molecular Devices SpectraMax ID5 Microplate Reader).
(§2) For the HPLC analysis, we incubated 10 μM p-H4K16laNBD with 0.2 μM SIRT3 and 100 μM NAD^+ in 20 mM HEPES buffer (pH = 8.0) for 2 h. We also performed time-dependent fluorescence measurements by incubating 10 μM p-H4K16laNBD with 0.2 μM SIRT3 and 100 μM NAD^+ or 0.1 μM HDAC3 in 20 mM HEPES buffer (pH = 8.0) for different time intervals. The fluorescence was measured using an excitation wavelength of 480 nm, and the emitted fluorescence signal at 550 nm was measured using a microplate reader (Molecular Devices SpectraMax ID5 Microplate Reader).
(§3) To determine the fluorescence change after incubating p-H4K16laNBD with various enzymes (HDAC3, SIRT1-3, SIRT5-7), we incubated 10 μM p-H4K16laNBD with 0.2 μM SIRT1-7 (except SIRT4) in 20 mM HEPES buffer (pH = 8.0) containing 100 μM NAD^+ for 2 h. For positive control, we used 0.1 μM HDAC3. The fluorescence was measured using an excitation wavelength of 480 nm, and the emitted fluorescence signal at 550 nm was measured using a microplate reader (Molecular Devices SpectraMax ID5 Microplate Reader).

[2] = target: T2, SIRT3 (Homo sapiens, UniProt Q9NTG7); assay: fluorogenic probe delactylation assay; type: biochemical
T2 construct: SIRT3 (118–399 aa); 6xHis with TEV site (pET-N-6xHis-TEV vector) (N, cleaved yes); made in house; host or cells: E. coli BL21-CodonPlus (DE3)-RIL
T2 sequence (Q9NTG7 118-399): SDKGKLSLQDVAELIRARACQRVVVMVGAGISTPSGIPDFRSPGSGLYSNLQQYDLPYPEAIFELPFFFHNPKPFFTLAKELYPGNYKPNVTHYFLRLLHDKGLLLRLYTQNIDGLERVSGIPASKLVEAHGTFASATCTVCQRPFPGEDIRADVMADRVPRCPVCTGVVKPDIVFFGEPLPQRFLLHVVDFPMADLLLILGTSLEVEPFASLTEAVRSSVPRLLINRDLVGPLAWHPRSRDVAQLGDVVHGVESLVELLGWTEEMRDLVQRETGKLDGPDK
Protocol: as §1, §2, §3

[3] = target: T3, SIRT2 (Homo sapiens, UniProt Q8IXJ6); assay: fluorogenic probe delactylation assay; type: biochemical; details: 10 μM probe, 100 μM NAD+, HEPES pH 8.0, 37°C, 2 h
T3 construct: SIRT2 (50–356 aa); SUMO (pET-28a-sumo vector) (cleaved yes); made in house; host or cells: E. coli BL21-CodonPlus (DE3)-RIL
T3 sequence (Q8IXJ6 50-356): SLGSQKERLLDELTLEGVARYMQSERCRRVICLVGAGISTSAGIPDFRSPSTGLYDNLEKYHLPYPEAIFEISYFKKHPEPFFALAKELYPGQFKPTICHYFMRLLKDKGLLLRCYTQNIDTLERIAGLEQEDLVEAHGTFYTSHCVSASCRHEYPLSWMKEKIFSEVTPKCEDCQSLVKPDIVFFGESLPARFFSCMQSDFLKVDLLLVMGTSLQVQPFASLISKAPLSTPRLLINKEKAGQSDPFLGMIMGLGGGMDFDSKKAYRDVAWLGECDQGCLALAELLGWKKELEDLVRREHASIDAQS
Protocol: as §3

[4] = target: T4, SIRT1 (Homo sapiens, UniProt Q96EB6); assay: fluorogenic probe delactylation assay; type: biochemical; details: 10 μM probe, 100 μM NAD+, HEPES pH 8.0, 37°C, 2 h
T4 construct: the human SIRT1 core region (234–505 aa); SUMO (pET-28a-sumo vector) (cleaved yes); made in house; host or cells: E. coli BL21-CodonPlus (DE3)-RIL
T4 sequence (Q96EB6 234-505): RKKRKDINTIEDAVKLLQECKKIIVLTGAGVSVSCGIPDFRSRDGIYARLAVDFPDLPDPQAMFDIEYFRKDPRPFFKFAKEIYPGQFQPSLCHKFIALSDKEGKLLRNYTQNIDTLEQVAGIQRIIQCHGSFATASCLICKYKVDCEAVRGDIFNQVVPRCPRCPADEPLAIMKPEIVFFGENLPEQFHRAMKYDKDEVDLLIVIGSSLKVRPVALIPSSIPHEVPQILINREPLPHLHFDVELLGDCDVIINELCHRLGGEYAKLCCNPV
Protocol: as §3

[5] = absorption/fluorescence spectra of the probe; type: physicochemical; details: 10 μM probe
Protocol: as §1

[6] = test system: SIRT7; assay: fluorogenic probe delactylation assay; type: biochemical, human; details: 10 μM probe, 100 μM NAD+, HEPES pH 8.0, 37°C, 2 h
Protocol: as §3

[7] = test system: SIRT5; assay: fluorogenic probe delactylation assay; type: biochemical, human; details: 10 μM probe, 100 μM NAD+, HEPES pH 8.0, 37°C, 2 h
Protocol: as §3

[8] = test system: SIRT6; assay: fluorogenic probe delactylation assay; type: biochemical, human; details: 10 μM probe, 100 μM NAD+, HEPES pH 8.0, 37°C, 2 h
Protocol: as §3

[9] = test system: pan-Kla; details: cells treated with nicotinamide; cited from earlier work
Text: (§4) Histone deacetylases (HDACs), including HDACs and Sirtuin family proteins, are well studied PTM erasers that regulate gene transcription. Recently, Moreno-Yruela et al. discovered that class I HDACs (HDAC1-3), especially HDAC3, are effective lactylation erasers.[5] […] The authors also treated cells with HDAC inhibitors (butyrate, trichostatin A, and apicidin) and a Sirtuin pan-inhibitor (nicotinamide) to compare the intracellular delactylation activities between HDACs and Sirtu ...

[10] = test system: pan-Kac; details: cells treated with nicotinamide; cited from earlier work
Text: as §4

T1 sequence (O15379 whole entry): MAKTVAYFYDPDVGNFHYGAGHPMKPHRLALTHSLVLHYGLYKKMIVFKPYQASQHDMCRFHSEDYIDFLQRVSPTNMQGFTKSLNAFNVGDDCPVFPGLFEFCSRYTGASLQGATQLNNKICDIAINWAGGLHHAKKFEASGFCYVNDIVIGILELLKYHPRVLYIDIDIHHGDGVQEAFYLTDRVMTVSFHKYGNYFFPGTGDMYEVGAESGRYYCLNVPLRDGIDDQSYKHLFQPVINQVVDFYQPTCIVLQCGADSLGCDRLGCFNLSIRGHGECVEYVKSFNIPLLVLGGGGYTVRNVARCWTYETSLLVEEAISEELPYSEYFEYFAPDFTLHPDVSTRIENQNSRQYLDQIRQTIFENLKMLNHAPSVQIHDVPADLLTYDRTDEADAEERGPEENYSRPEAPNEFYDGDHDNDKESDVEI
T1 sequence (Q9Y618 395-489 partner limits assumed): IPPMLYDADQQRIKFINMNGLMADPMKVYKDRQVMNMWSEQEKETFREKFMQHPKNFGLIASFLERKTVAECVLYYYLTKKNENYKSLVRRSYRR

Row | first-order rate constant k, HDAC3 ([1]; 0.1 μM HDAC3, 20 mM HEPES pH 8.0, λex 480, λem 550 nm) | fluorescence response, HDAC3 ([1]; 0.1 μM HDAC3, HEPES pH 8.0, 37°C, 2 h) | first-order rate constant k, SIRT3 ([2]; 10 μM probe, 0.2 μM SIRT3, 100 μM NAD+, 20 mM HEPES pH 8.0, λex 480, λem 550 nm) | fluorescence response, SIRT3 ([2]; 10 μM probe, SIRT3, 100 μM NAD+, HEPES pH 8.0, 37°C, 2 h) | fluorescence response, SIRT2 [3] | fluorescence response, SIRT1 [4] | Molecule | fluorescence with sole NAD+ or denatured SIRT3 ([2]; control groups) | new absorption peak after enzymatic reaction ([5]; 0.2 μM SIRT3, 100 μM NAD+, 2 h, HEPES pH 8.0) | absorption peak ([5]; 20 mM HEPES pH 8.0, without enzyme) | fluorescence emission peak after incubation with SIRT3 and NAD+ ([5]; λex 480 nm, 0.2 μM SIRT3, 100 μM NAD+) | fluorescence response, SIRT7 [6] | fluorescence response, SIRT5 [7] | fluorescence response, SIRT6 [8] | pan-Kla level change [9] | pan-Kac level change [10]
1 | 0.0102 min⁻¹ | fluoresced at 550 nm | 0.0059 min⁻¹ | fluoresced at 550 nm | minimal changes in fluorescence | minimal changes in fluorescence | GGAK(lac)RHRPra-NH2 [p-H4K16laNBD, H4K16la based fluorogenic probe with O-NBD (nitrobenzofurazan) group conjugated to the C-terminus] | will not affect the fluorescence generating | 482 nm | around 370 nm | 550 nm | minimal changes in fluorescence | minimal changes in fluorescence | minimal changes in fluorescence | – | –
2 | – | – | – | – | – | – | NC(=O)c1cccnc1 [nicotinamide] | – | – | – | – | – | – | – | unable to induce Sirtuin-regulated pan-Kla increasement | unchanged
